{"source": "patent US8247211B2", "about": "“Glycopeptide antibiotics” (American Cyanamid Company, priority 2001, dated 2012)", "test_in_all_cases": "In vitro antibacterial evaluation: minimum inhibitory concentration (MIC), broth dilution method", "type_in_all_cases": "cell-based", "key": {"Enterococcus sp.": {"test_system": "Enterococcus sp.", "details": "for MIC Enterococccus faecalis (ATCC 29212) / MIC Enterococccus faecalis (GC 4552) / MIC Enterococcus faecalis (GC 2242): broth dilution, 5×10^5 CFU/mL, 18 hours at 35° C.", "method": "(§1) The minimum inhibitory concentration (MIC), the lowest concentration of the antibiotic which inhibits growth of the test organism, is determined by the broth dilution method using Muller-Hinton II […] (Baltimore Biological Laboratories) following the recommendations of the National Committee for Clinical Laboratory Standards [Methods for dilution antimicrobial susceptibility tests for bacteria that grow aerobically, approved standard M7-A2, National Committee for Clinical Laboratory Standards, Villanova, Pa].\n(§2) An inoculum level of 5×10^5 CFU/mL, and a range of antibiotic concentrations (64-0.06 μg/mL) is used. […] The test organisms include a spectrum of Gram-positive bacteria comprised of Staphylococcus sp., Streptococcus sp. and Enterococcus sp. These organisms include recent clinical isolates that are resistant to methicillin, penicillin and/or vancomycin."}, "Escherichia coli": {"test_system": "Escherichia coli", "method": "as §1, §2"}, "Staphylococcus sp.": {"test_system": "Staphylococcus sp.", "details": "for MIC Staphylococcus aureus (GC 4535): strain GC 4535; for MIC Coagulase Negative Staphylococcus (GC 4537): strain GC 4537; for MIC Coagulase Negative Staphylococcus (GC 4538): strain GC 4538", "method": "as §1, §2"}, "[1]": {"details": "5×10^5 CFU/mL, 18 hours at 35° C."}, "[2]": {"details": "broth dilution, 18 hours at 35° C."}, "[3]": {"details": "strain GC 4547, broth dilution, 18 hours at 35° C."}, "[4]": {"details": "strain SMITH GC 4536, broth dilution, 18 hours at 35° C."}}, "data": [{"smiles": "CC(c1ccccc1)C1NC(=O)CNC(=O)C(CO)NC(=O)C(C(O)C2CNC(=N)N2C2OC(CO)C(O)C(O)C2O)NC(=O)C(C(O)C2CNC(=N)N2)NC(=O)C(Cc2ccc(OC3OC(CO)C(OC4OC(COC(=O)CCC5CCCC5)C(O)C(O)C4O)C(O)C3O)cc2)NC1=O", "note": "(stereo not drawn) [Example 100c, Cyclo[glycyl-β-methylphenylalanyl-O-[4-O-[6-O-(3-cyclopentylpropanoyl)hexopyranosyl]-hexopyranosyl]tyrosyl-3-(2-iminoimidazolidin-4-yl)seryl-3-(3-hexopyranosyl-2-iminoimidazolidin-4-yl)serylseryl]]", "values": [{"measurement": "MIC Enterococccus faecalis (ATCC 29212)", "setting": "Enterococcus sp.", "value": 4, "unit": "µg/mL"}, {"measurement": "MIC Enterococccus faecalis (GC 4552)", "setting": "Enterococcus sp.", "value": 4, "unit": "µg/mL"}, {"measurement": "MIC Enterococcus faecalis (GC 2242)", "setting": "Enterococcus sp.", "value": 2, "unit": "µg/mL"}, {"measurement": "MIC Escherichia coli (GC 4559)", "setting": "Escherichia coli; [1]", "value": 32, "unit": "µg/mL"}, {"measurement": "MIC Escherichia coli (GC 4560)", "setting": "Escherichia coli; [1]", "value": 0.5, "unit": "µg/mL"}, {"measurement": "MIC Staphylococcus aureus (ATCC 29213)", "setting": "Staphylococcus sp.; strain ATCC 29213", "value": 1, "unit": "µg/mL"}, {"measurement": "MIC Staphylococcus aureus (GC 1131)", "setting": "Staphylococcus sp.; strain GC 1131", "value": 1, "unit": "µg/mL"}, {"measurement": "MIC Staphylococcus aureus (GC 4535)", "setting": "Staphylococcus sp.", "value": 1, "unit": "µg/mL"}, {"measurement": "MIC Staphylococcus aureus-SMITH (GC 4536)", "setting": "Staphylococcus sp.; strain GC 4536", "value": 1, "unit": "µg/mL"}, {"measurement": "MIC Coagulase Negative Staphylococcus (GC 4537)", "setting": "Staphylococcus sp.", "value": 1, "unit": "µg/mL"}, {"measurement": "MIC Coagulase Negative Staphylococcus (GC 4537)", "setting": "Staphylococcus sp.; [2]", "value": 1, "unit": "µg/mL"}, {"measurement": "MIC Coagulase Negative Staphylococcus (GC 4538)", "setting": "Staphylococcus sp.", "value": 1, "unit": "µg/mL"}, {"measurement": "MIC Coagulase Negative Staphylococcus (GC 4538)", "setting": "Staphylococcus sp.; [2]", "value": 1, "unit": "µg/mL"}, {"measurement": "MIC Coagulase Negative Staphylococcus (GC 4547)", "setting": "Staphylococcus sp.; strain GC 4547", "value": 1, "unit": "µg/mL"}, {"measurement": "MIC Coagulase Negative Staphylococcus (GC 4547)", "setting": "Staphylococcus sp.; [3]", "value": 1, "unit": "µg/mL"}, {"measurement": "MIC Staphylococcus aureus-SMITH (GC 4536)", "setting": "Staphylococcus sp.; [4]", "value": 1, "unit": "µg/mL"}]}, {"smiles": "CC(C)CC(=O)OCC1OC(OC2C(CO)OC(Oc3ccc(CC4NC(=O)C(Cc5ccccc5)NC(=O)CNC(=O)C(CO)NC(=O)C(C(O)C5CNC(=N)N5C5OC(CO)C(O)C(O)C5O)NC(=O)C(C(O)C5CNC(=N)N5)NC4=O)cc3)C(O)C2O)C(O)C(O)C1O", "note": "(stereo not shown) [Example 283c, Cyclo[glycylphenylalanyl-O-[4-O-[6-O-(3-methylbutanoyl)-hexopyranosyl]hexopyranosyl]tyrosyl-3-(2-iminoimidazolidin-4-yl)seryl-3-(3-hexopyranosyl-2-iminoimidazolidin-4-yl)serylseryl]]", "values": [{"measurement": "MIC Enterococcus faecium (GC 4557)", "setting": "Enterococcus sp.; Enterococcus faecium (GC 4557)", "value": 16, "unit": "µg/mL"}, {"measurement": "MIC Escherichia coli (GC 4560)", "setting": "Escherichia coli; Escherichia coli (GC 4560)", "value": 8, "unit": "µg/mL"}, {"measurement": "MIC Coagulase Negative Staphylococcus (GC 4547)", "setting": "Staphylococcus sp.; Coagulase Negative Staphylococcus (GC 4547), 18 hours at 35° C.", "value": 16, "unit": "µg/mL"}, {"measurement": "MIC Coagulase Negative Staphylococcus (GC 4547)", "setting": "Staphylococcus sp.; Coagulase Negative Staphylococcus (GC 4547), broth dilution, 18 hours at 35° C.", "value": 16, "unit": "µg/mL"}, {"measurement": "MIC Coagulase Negative Staphylococcus (GC 4548)", "setting": "Staphylococcus sp.; 18 hours at 35° C.", "value": 8, "unit": "µg/mL"}, {"measurement": "MIC Coagulase Negative Staphylococcus (GC 4548)", "setting": "Staphylococcus sp.; [2]", "value": 8, "unit": "µg/mL"}, {"measurement": "MIC Coagulase Negative Staphylococcus (GC 4549)", "setting": "Staphylococcus sp.; 18 hours at 35° C.", "value": 16, "unit": "µg/mL"}, {"measurement": "MIC Coagulase Negative Staphylococcus (GC 4549)", "setting": "Staphylococcus sp.; [2]", "value": 16, "unit": "µg/mL"}, {"measurement": "MIC Coagulase Negative Staphylococcus (GC 4551)", "setting": "Staphylococcus sp.; 18 hours at 35° C.", "value": 32, "unit": "µg/mL"}, {"measurement": "MIC Coagulase Negative Staphylococcus (GC 4551)", "setting": "Staphylococcus sp.; [2]", "value": 32, "unit": "µg/mL"}, {"measurement": "MIC Staphylococcus aureus (ATCC 29213)", "setting": "Staphylococcus sp.; Staphylococcus aureus (ATCC 29213), 18 hours at 35° C.", "value": 32, "unit": "µg/mL"}, {"measurement": "MIC Staphylococcus aureus (ATCC 29213)", "setting": "Staphylococcus sp.; Staphylococcus aureus (ATCC 29213), broth dilution, 18 hours at 35° C.", "value": 32, "unit": "µg/mL"}, {"measurement": "MIC Staphylococcus aureus (GC 1131)", "setting": "Staphylococcus sp.; Staphylococcus aureus (GC 1131), 18 hours at 35° C.", "value": 32, "unit": "µg/mL"}, {"measurement": "MIC Staphylococcus aureus (GC 1131)", "setting": "Staphylococcus sp.; Staphylococcus aureus (GC 1131), broth dilution, 18 hours at 35° C.", "value": 32, "unit": "µg/mL"}, {"measurement": "MIC Staphylococcus aureus (GC 3051)", "setting": "Staphylococcus sp.; 18 hours at 35° C.", "value": 32, "unit": "µg/mL"}, {"measurement": "MIC Staphylococcus aureus (GC 3051)", "setting": "Staphylococcus sp.; [2]", "value": 32, "unit": "µg/mL"}, {"measurement": "MIC Staphylococcus aureus (GC 3053)", "setting": "Staphylococcus sp.; 18 hours at 35° C.", "value": 64, "unit": "µg/mL"}, {"measurement": "MIC Staphylococcus aureus (GC 3053)", "setting": "Staphylococcus sp.; [2]", "value": 64, "unit": "µg/mL"}, {"measurement": "MIC Staphylococcus aureus (GC 4541)", "setting": "Staphylococcus sp.; 18 hours at 35° C.", "value": 32, "unit": "µg/mL"}, {"measurement": "MIC Staphylococcus aureus (GC 4541)", "setting": "Staphylococcus sp.; [2]", "value": 32, "unit": "µg/mL"}, {"measurement": "MIC Staphylococcus aureus (GC 4542)", "setting": "Staphylococcus sp.; 18 hours at 35° C.", "value": 32, "unit": "µg/mL"}, {"measurement": "MIC Staphylococcus aureus (GC 4542)", "setting": "Staphylococcus sp.; [2]", "value": 32, "unit": "µg/mL"}, {"measurement": "MIC Staphylococcus aureus (GC 4544)", "setting": "Staphylococcus sp.; 18 hours at 35° C.", "value": 32, "unit": "µg/mL"}, {"measurement": "MIC Staphylococcus aureus (GC 4544)", "setting": "Staphylococcus sp.; [2]", "value": 32, "unit": "µg/mL"}, {"measurement": "MIC Staphylococcus aureus (GC 4545)", "setting": "Staphylococcus sp.; 18 hours at 35° C.", "value": 16, "unit": "µg/mL"}, {"measurement": "MIC Staphylococcus aureus (GC 4545)", "setting": "Staphylococcus sp.; [2]", "value": 16, "unit": "µg/mL"}, {"measurement": "MIC Staphylococcus aureus-SMITH (GC 4543)", "setting": "Staphylococcus sp.; 18 hours at 35° C.", "value": 16, "unit": "µg/mL"}, {"measurement": "MIC Staphylococcus aureus-SMITH (GC 4543)", "setting": "Staphylococcus sp.; [2]", "value": 16, "unit": "µg/mL"}, {"measurement": "MIC Staphylococcus haemolyticus (GC 4546)", "setting": "Staphylococcus sp.; 18 hours at 35° C.", "value": 16, "unit": "µg/mL"}, {"measurement": "MIC Staphylococcus haemolyticus (GC 4546)", "setting": "Staphylococcus sp.; [2]", "value": 16, "unit": "µg/mL"}]}, {"smiles": "CC(c1ccccc1)C1NC(=O)CNC(=O)C(CO)NC(=O)C(C(O)C2CNC(=N)N2C2OC(CO)C(O)C(O)C2O)NC(=O)C(C(O)C2CNC(=N)N2)NC(=O)C(Cc2ccc(OC3OC(COC(=O)CCC4CCCC4)C(OC4OC(CO)C(O)C(O)C4O)C(O)C3O)cc2)NC1=O", "note": "(stereo not drawn) [Example 100b, Cyclo[glycyl-β-methylphenylalanyl-O-[6-O-(3-cyclopentylpropanoyl)-4-O-hexopyranosyl-hexopyranosyl]tyrosyl-3-(2-iminoimidazolidin-4-yl)seryl-3-(3-hexopyranosyl-2-iminoimidazolidin-4-yl)serylseryl]]", "values": [{"measurement": "MIC Enterococccus faecalis (ATCC 29212)", "setting": "Enterococcus sp.", "value": 8, "unit": "µg/mL"}, {"measurement": "MIC Enterococccus faecalis (GC 4552)", "setting": "Enterococcus sp.", "value": 8, "unit": "µg/mL"}, {"measurement": "MIC Enterococcus faecalis (GC 2242)", "setting": "Enterococcus sp.", "value": 8, "unit": "µg/mL"}, {"measurement": "MIC Escherichia coli (GC 4560)", "setting": "Escherichia coli; [1]", "value": 0.5, "unit": "µg/mL"}, {"measurement": "MIC Staphylococcus aureus (ATCC 29213)", "setting": "Staphylococcus sp.; strain ATCC 29213", "value": 2, "unit": "µg/mL"}, {"measurement": "MIC Staphylococcus aureus (GC 1131)", "setting": "Staphylococcus sp.; strain GC 1131", "value": 2, "unit": "µg/mL"}, {"measurement": "MIC Staphylococcus aureus (GC 4535)", "setting": "Staphylococcus sp.", "value": 2, "unit": "µg/mL"}, {"measurement": "MIC Staphylococcus aureus-SMITH (GC 4536)", "setting": "Staphylococcus sp.; strain GC 4536", "value": 2, "unit": "µg/mL"}, {"measurement": "MIC Coagulase Negative Staphylococcus (GC 4537)", "setting": "Staphylococcus sp.", "value": 2, "unit": "µg/mL"}, {"measurement": "MIC Coagulase Negative Staphylococcus (GC 4537)", "setting": "Staphylococcus sp.; [2]", "value": 2, "unit": "µg/mL"}, {"measurement": "MIC Coagulase Negative Staphylococcus (GC 4538)", "setting": "Staphylococcus sp.", "value": 1, "unit": "µg/mL"}, {"measurement": "MIC Coagulase Negative Staphylococcus (GC 4538)", "setting": "Staphylococcus sp.; [2]", "value": 1, "unit": "µg/mL"}, {"measurement": "MIC Coagulase Negative Staphylococcus (GC 4547)", "setting": "Staphylococcus sp.; strain GC 4547", "value": 1, "unit": "µg/mL"}, {"measurement": "MIC Coagulase Negative Staphylococcus (GC 4547)", "setting": "Staphylococcus sp.; [3]", "value": 1, "unit": "µg/mL"}, {"measurement": "MIC Staphylococcus aureus-SMITH (GC 4536)", "setting": "Staphylococcus sp.; [4]", "value": 2, "unit": "µg/mL"}]}]}
